Results from patent US7550425B2, “Diuretic peptide conjugates” (Zealand Pharma A/S, priority 2000, dated 2009).

What was measured:
[1] = test system: nociceptin-induced smooth muscle relaxation in mouse vas deferens; experiment: Mouse vas deferens assay: antagonism of nociceptin-induced relaxation (Schild pA2)
Description: The vas deferens from male NMRI albino mice weighing 30-40 g were placed in a SCHULER organ bath Type 809, Hugo Sachs Elektronik, Germany, and perfused with a 37° C., modified Krebs solution (NaCl 6,9 g/L, KCl 0.35 g/L, KH2PO4 0.16 g/L, NaHCO3 2.1 g/L, Glucose H2O 2.0 g/L, CaCl2 2.52 mL/L). The solution was gassed with carbogen (95% O2 and 5% CO2) throughout the experiment. The tissue was electrically stimulated through two silver electrodes directly in the organ bath using a HSE Stimulator I Type 215. Stimulation of the tissue was performed by applying a supramaximal voltage (15 Volts) in trains of 10 square pulses every 60 s, each of 1 ms duration with a frequency of […]. Concentration-response curves were performed by adding test substances that relax mouse vas deferens smooth muscles cumulatively to the organ baths. The test substances used in the assay were nociceptin in an isotonic saline solution, Compound 1 (as the trifluoroacetate in an isotonic saline solution), Compound 2 (as the trifluoroacetate in an isotonic saline solution), and the hexapeptide Ac-RYYRWK-NH2 (SEQ ID NO: 1) (as the trifluoroacetate in an isotonic saline solution).
The effects of Ac-RYYRWK-NH2 (SEQ ID NO: 1) and Compound 1 on nociceptin-induced relaxation in the mouse vas deferens assay were also tested. […] Using the Schild equation ^[7], the pA2 values which indicates affinity of a compound as an antagonist were calculated.

cirrhotic rats = experiment: Renal responses in rats with liver cirrhosis induced by common bile duct ligation and sham-operated controls; assay type: in vivo, rat; conditions: i.v. bolus 65 nmol/kg
Description: Rats with liver cirrhosis induced by common bile duct ligation develop avid sodium and water retention and ascites within 2-4 weeks. The disturbed sodium and water balance in cirrhotic rats is in agreement with the pivotal clinical findings of edema and ascites in patients with liver cirrhosis. To examine the efficacy of Compound 1 in an experimental model of an edema-forming state, the diuretic response to an acute i.v. bolus injection of Compound 1 (65 nmol/kg) was evaluated in rats with liver cirrhosis induced by common bile duct ligation 4 weeks earlier. Prior to the experiments, rats were instrumented with chronic catheters in the urinary bladder, and in the femoral vein and artery. Renal responses to Compound 1 were compared with responses in sham-operated control rats. […] Relative changes in urine flow rate, sodium and potassium excretion after i.v. administration of 65 nmol/kg in sham-operated control animals are summarized in FIG. 7.
Changes in urine flow rate, free water clearance, fractional sodium excretion and fractional potassium excretion after i.v. administration of 65 nmol/kg in sham-operated control and cirrhotic animals are summarized in FIG. 8.

[2] = test system: chronically instrumented rats; experiment: Twelve-hour i.v. infusion with servo-controlled volume replacement (acute tachyphylaxis); assay type: in vivo, rat
Description: To evaluate whether acute tachyphylaxis develops during i.v. treatment with Compound 1, an additional series of experiments were performed. Chronically instrumented rats were infused with vehicle (150 mM glucose) or Compound 1 (1 nmol/kg/min) for twelve hours while water balance was maintained using a computer-driven, servo-controlled i.v. volume replacement system^[2]. Acute tachyphylaxis has been observed during repeated i.v. dosing of the vasopressin antagonist SKF 101926 in conscious dogs^[12] and tolerance during chronic treatment has been reported for the selective V2-receptor antagonist OPC-31260 ^[13].

[3] = In vitro stability in heparin stabilised mouse plasma; assay type: in vitro ADME; conditions: heparinised mouse plasma, 37° C., read-out: half-life t½ of degradation
Description: Degradation of peptides is almost exclusively seen in the presence of enzymes, e.g. in the bloodstream. An important feature of a putative drug is whether it is quickly degraded in vivo or whether it is able to conduct its effects over a longer period of time. To be able to examine the stability of the peptide conjugates of the present invention degradation was tested in heparin stabilised mouse plasma (obtained from Harlan Seralab, UK).
The stability studies were run in triplicate. 100 μL of a 1 mg/mL solution of the test compound (peptide conjugate) was added to an Eppendorf tube, containing 900 μL plasma, incubated at 37° C. Immediately after addition, a sample of 100 μL was removed and added to an Eppendorf tube, containing 10 μL of extraction solution (50% TFA (trifluoroacetic acid) in MeCN, v/v). This sample constitutes t=0. […] The samples are centrifuged at 20,000×g, and the supernatant was transferred to vials and analysed by high-performance liquid chromatography (HPLC).
The analysis was performed on a HP1100 HPLC with a quaternary pump. The column used was a Vydac 201SP5215, and the apparatus comprises an autosampler, a column oven, a variable UV detector and a fluorescence detector. […] These values were transferred to Microsoft Excel, where half-lives (t½) and rate constant (kobs) for Ac-RYYRWK-NH2 (SEQ ID NO: 1) and Compound 1 were determined by fitting to the equation.

[4] = cirrhotic and sham-operated rats

## Ac-RYYRWKKKKKKK-NH2 [Compound 1, Ac-RYYRWKKKKKKK-NH2]
[1]; Schild equation, antagonism of nociceptin-induced relaxation, n = 4
  pA2 value: 9.5 (n = 4)
[1]; nociceptin-induced smooth muscle relaxation, MVD assay
  fold more potent as an antagonist than Ac-RYYRWK-NH2: about 50 fold
Cirrhotic rats
  renal responses, cirrhotic versus control rats: renal responses were similar in cirrhotic and control rats
Cirrhotic rats; FIG. 8
  fractional excretion of sodium and potassium: decrease in fractional excretion of sodium and potassium
  urine flow rate: marked increase in urine flow rate
Cirrhotic rats; [4]
  glomerular filtration rate: absence of changes in the glomerular filtration rate
  urinary excretion of sodium and potassium: decrease in urinary excretion of sodium and potassium
[2]; i.v. infusion 1 nmol/kg/min
  tubular water reabsorption and haemodynamics: inhibited tubular water reabsorption without concomitant changes in arterial blood pressure, heart rate, renal blood flow, glomerular filtration rate or proximal tubular reabsorption
[2]; i.v. infusion 1 nmol/kg/min for twelve hours
  duration of aquaretic response: sustained aquaretic response lasting the entire 12-hour infusion period
[2]; i.v. infusion 1 nmol/kg/min, 12 hours
  acute tachyphylaxis: no acute tachyphylaxis develops within the first 12 hours of treatment
[2]; i.v. infusion 1 nmol/kg/min, FIG. 9
  magnitude of aquaretic response versus OPC-31260: aquaretic response of similar magnitude to the response seen with maximal doses of the selective vasopressin type-2 receptor antagonist OPC-31260
[3]
  half-life at 0.1 mg/mL: 5.97 h
